The values that follow come from patent US11471462B2, “Compositions and methods for detecting and treating diabetes” (THE BROAD INSTITUTE, INC., priority 2016, dated 2022).

Data set [1] concerns SLC16A11. Kind of data set: SLC16A11 protein-protein interaction study (immunoprecipitation, quantitative mass spectrometry). The conditions noted are these: putative SLC16A11^REF interaction partners; immunoprecipitation from HEK293T cells vs empty vector control; Blandt-Altman. Details: species or system human. An excerpt: Alternatively, these variants may result in reduced transport because they disrupt protein-protein interactions responsible for correct SLC16A11 function. To explore this possibility, SLC16A11 was immunoprecipitated from HEK293T cells expressing either REF or T2D risk SLC16A11-V5 or empty vector control and quantitative mass spectrometry was used to define the SLC16A11 interactome.
Another mechanism through which the variants could affect activity is through disruption of protein-protein interactions. To explore this possibility, quantitative mass spectrometry-based protein-protein interaction studies were performed to define the SLC16A11 interactome and evaluate if the T2D risk coding variants alter any interactions.
Beads were then washed once with lysis buffer and three times with wash buffer. After the last wash, residual wash buffer was removed, 10 μL fresh wash buffer was added, and beads were stored at −80° C. until analysis by the Proteomics Platform at the Broad Institute, as detailed in the “Proteomics Methods for SLC16A11 Protein Interaction Studies” below.
The beads from immunopurification were washed once with IP lysis buffer, then three times with PBS, the three different lysates of each replicate were resuspended in 90 uL digestion buffer (2M Urea, 50 mM Tris HCl), 2 ug of sequencing grade trypsin added, 1 hour shaking at 700 rpm. The supernatant was removed and placed in a fresh tube. The beads were then washed twice with 50 uL digestion buffer and combined with the supernatant. The combined supernatants were reduced (2 uL 500 mM DTT, 30 minutes, RT), alkylated (4 uL 500 mM IAA, 45 minutes, dark) and a longer overnight digestion performed: 2 ug (4 uL) trypsin, shake o/n, The samples were then quenched with 20 uL 10% FA and desalted on 10 mg SepPak columns.
Desalted peptides were labelled with iTRAQ reagents according to the manufacturer's instructions (AB Sciex, Foster City, Calif.). Peptides were dissolved in 30 μl of 0.5 M TEAB pH 8.5 solution and labeling reagent was added in 70 ul of ethanol. After 1 h incubation the reaction was stopped with 50 mM Tris/HCl pH 7.5. Differentially labelled peptides were mixed and subsequently desalted on 10 mg SepPak columns.
Reconstituted peptides were separated on an online nanoflow EASY-nLC 1000 UHPLC system (Thermo Fisher Scientific) and analyzed on a benchtop Orbitrap Q Exactive Plus mass spectrometer (Thermo Fisher Scientific). The peptide samples were injected onto a capillary column (Picofrit with 10 μm tip opening/75 μm diameter, New Objective, PF360-75-10-N-5) packed in-house with 20 cm C18 silica material (1.9 μm ReproSil-Pur C18-AQ medium, Dr. Maisch GmbH, r119.aq). The UHPLC setup was connected with a custom-fit microadapting tee (360 μm, IDEX Health & Science, UH-753), and capillary columns were heated to 50° C. in column heater sleeves (Phoenix-ST) to reduce backpressure during UHPLC separation. Injected peptides were separated at a flow rate of 200 nL/min with a linear 80 min gradient from 100% solvent A (3% acetonitrile, 0.1% formic acid) to 30% solvent B (90% acetonitrile, 0.1% formic acid), followed by a linear 6 min gradient from 30% solvent B to 90% solvent B. Each sample was run for 120 min, including sample loading and column equilibration times. The Q Exactive instrument was operated in the data-dependent mode acquiring HCD MS/MS scans (R=17,500) after each MS1 scan (R=70,000) on the 12 top most abundant ions using an MS1 ion target of 3×10^6 ions and an MS2 target of 5×10^4 ions. The maximum ion time utilized for the MS/MS scans was 120 ms; the HCD-normalized collision energy was set to 27; the dynamic exclusion time was set to 20 s, and the peptide match and isotope exclusion functions were enabled.
All mass spectra were processed using the Spectrum Mill software package v6.0 pre-release (Agilent Technologies) which includes modules developed by us for iTRAQ-based quantification. […]

The test system of data set [2] is SLC16A11. Kind of data set: CRISPR (SAM) transactivation assay, SLC16A11 expression in 293T cells. The note with it: Cas9-based transactivators (SAM) targeted near variant. It counts as cell-based, human. An excerpt: These experiments are based upon Cas9 based transactivators (SAM or synergistic activation mediators) as described in Konermann et al (Nature 517: 583-588, 2015). Similar experiments based on other types of transactivators that are more finely tuned to distal activation such as those described in Hilton et al. (Nature 33:510-518, 2015) could also be envisioned. Cas9 was used to target transactivators to sites near individual variants in the credible set. Their ability to activate SLC16A11 gene expression was assessed (Table 10).
Cell lines derived from HEK293-T cells were established by lentivirus infection resulting in stable integration of two components of the SAM system namely dCas9-VP64 and MS2-p65-HSF1. The resulting stable cell lines were then plated into 96 well plates and left overnight. The next day, cells were transfected with the guide RNAs (pHKO23), the final component of the SAM system. After an additional 48 hours, cells were harvested for gene expression analyses.

Data set [3] deals with SLC16A11. The data set is described as follows: Metabolic effectors on SLC16A11 transcript levels in SNU761 cells. The conditions noted are these: 24 hours, low and high concentrations. The format is cell-based, human. On the procedure: (§1) FIG. 22 provides bar graphs showing the effects of low and high concentrations of metabolic effectors (oleic acid (OA), insulin and glucagon) on expression levels of SLC16A11 and SLC16A13 transcripts in SNU761 cells cultured for 24 hours in the presence of low/high concentrations of OA (0.3 mM/1.5 mM); insulin (100 nM/500 nM); or glucagon (100 nM/500 nM). Relative transcipt levels of SLC16A11 and SLC16A13 are shown, with 2-FBS (2% Fetal Bovine Serum) used as control.
(§2) FIG. 23 provides bar graphs showing the effects of low and high concentrations of pyruvate or lactate on expression levels of SLC16A11 and SLC16A13 transcripts in SNU761 cells cultured for 24 hours in the presence of 2 mM pyruvate (low), 10 mM pyruvate (high), 20 mM lactate (low), or 100 mM lactate (high). Relative transcipt levels of SLC16A11 and SLC16A13 are shown, compared with transcript levels in cell cultured in increasing concentrations of glucose.
(§3) To assess whether metabolic effectors regulated SLC16A11 and SLC16A13 transcript levels, endogenous transcripts in SNU761 cells (derived from a human hepatocellular carcinoma) were examined following exposure of the cells to different metabolic perturbations. SNU761 cells were cultured in the presence of various metabolic effectors for 24 hours after which time cell lysates were collected and the relative endogenous expression levels of SLC16A11 and SLC16A13 transcripts were assessed. The metabolic effectors included in the cell cultures included oleic acid (OA) at a low concentration (0.3 mM) or a high concentration (1.5 mM); insulin at a low concentration (100 nM) or a high concentration (500 nM) and glucagon at a low concentration (100 nM) and a high concentration (500 nM). Cells cultured in 2-FBS were used as a control. […] (FIG. 22). Similarly, SNU761 cells were cultured in the presence or absence of low or high concentrations of pyruvate or lactate in the culture medium for 24 hours after which time cell lysates were analyzed. In the cultures, low (L) pyruvate concentration was 2 mM; high (H) pyruvate concentration was 10 mM, and low lactate concentration was 20 mM, while high lactate concentration was 100 mM. […] (FIG. 23).

For data set [4], the system named is SLC16A13. Kind of data set: Metabolic effectors on SLC16A13 transcript levels in SNU761 cells. It counts as cell-based, human. The note with it: 24 hours, low and high concentrations. On the procedure: as §1, §2, §3

With RNF5, in data set [1], the “BA log fold change” value is 1.42.
For the compound TUBA1B, in data set [1], the “BA log fold change” value is 1.05.
Take DNAJB4: the “BA log fold change” value in data set [1] is recorded as 1.08.
PSMD2: in data set [1], the “BA log fold change” value was determined as 0.98.
For SCFD1, in data set [1], the “BA log fold change” value is on record as 1.08.
For the compound PSMA1, the “BA log fold change” value in data set [1] is on record as 1.20.
As for GCN1L1, in data set [1], the “BA log fold change” value stood at 1.01.
With “rs186568031 (guide 1 GATTTTCACTCTTGTTGCCC; guide 2 TTCACTCTTGTTGCCCAGGC; listed as DNA, chemistry not given here; listed as Homo sapiens)”, the “Increases SLC16A11 transcript levels in transactivator assay” value (“Increases SLC16A11 transcript levels” below) in data set [2] is “FALSE”.
Regarding KIAA0368, the “BA log fold change” value in data set [1] turned out to be 1.16.
As for ATP1B3, in data set [1], the “BA log fold change” value came out at 1.18.
Consider “rs191133 (guide 1 TGAAAGTAAGTCAATCATGG; guide 2 ATGATTGACTTACTTTCATC; listed as DNA, chemistry not given here; listed as Homo sapiens)”, for which the “Increases SLC16A11 transcript levels” value in data set [2] is “FALSE”.
For “GTACATAATTCAATCCCCGT (chemistry not given here)”, the “Increases SLC16A11 transcript levels” value in data set [2] is on record as “TRUE”.
On the same count and under the same terms, as for “rs145952323 (guide 1 CAAAAATTAGCCGGGTGTGT; guide 2 CAGGCACACGCCAACACACC; listed as DNA, chemistry not given here; listed as Homo sapiens)”, the entry is “FALSE”.
For EMB, in data set [1], the “BA log fold change” value is 1.55.
On to PSMD11, for which the “BA log fold change” value in data set [1] amounted to 1.02.
For “rs193399 (guide 1 TAGAACCAGCTTCTAGGTTC; guide 2 TCCTTCCTGAACCTAGAAGC; listed as DNA, chemistry not given here; listed as Homo sapiens)”, in data set [2], the “Increases SLC16A11 transcript levels” value is given as “FALSE”.
With insulin: metabolic effector (hormone), the SLC16A11 transcript levels result in data set [3] was “alter”. Also, the SLC16A13 transcript levels result in data set [4] is recorded as “alter”.
For the compound “rs4630597 (guide 1 GGTGCCTCAGATACCTGGTT; guide 2 AACCAGGTATCTGAGGCACC; listed as DNA, chemistry not given here; listed as Homo sapiens)”, in data set [2], the “Increases SLC16A11 transcript levels” value is listed as “FALSE”.
With “rs74577409 (guide 1 ACCTGCCGCCTGCTGCGCGC; guide 2 CCCTGCGCGCAGCAGGCGGC; listed as DNA, chemistry not given here; listed as Homo sapiens)”, in data set [2], the “Increases SLC16A11 transcript levels” value is listed as “TRUE”.
In the case of “rs17203148 (guide 1 TCTGCCAATCTTGGCTCTGT; guide 2 GAAACCTACAGAGCCAAGAT; listed as DNA, chemistry not given here; listed as Homo sapiens)”, the “Increases SLC16A11 transcript levels” value in data set [2] is listed as “FALSE”.
On the same count and under the same terms, next, “rs17203120 (guide 1 CTTATTTGATTTTATCTCAA; guide 2 TTATTTGATTTTATCTCAAA; listed as DNA, chemistry not given here; listed as Homo sapiens)”: “FALSE”.
On to PSMC3, for which the “BA log fold change” value in data set [1] stood at 1.16.
glucagon: metabolic effector (hormone): the SLC16A11 transcript levels entry in data set [3] is “alter”. Besides, the SLC16A13 transcript levels result in data set [4] is recorded as “alter”.
“rs58223766 (guide 1 TCAGGAGTTCGAGACCATCC; guide 2 GATCCACCCCCCCCCCCCCT; listed as DNA, chemistry not given here; listed as Homo sapiens)”: the “Increases SLC16A11 transcript levels” value in data set [2] is given as “FALSE”.
Turning to BAG6, the “BA log fold change” value in data set [1] is 1.08.
Regarding “TTACAGGCTTGCACCGCGCC (chemistry not given here)”, the “Increases SLC16A11 transcript levels” value in data set [2] was “TRUE”.
Consider `CCCCCCCC/C=C\CCCCCCCC(=O)O` [oleic acid], for which the SLC16A11 transcript levels entry in data set [3] is reported as “alter”. Moreover, in data set [4], the SLC16A13 transcript levels result is “increase”.
PSMD14: in data set [1], the “BA log fold change” value is 1.31.
With “rs78972129 (guide 1 GATGCTATGGTTGGCCACGC; guide 2 AGTACAGTACACAGCCTGCG; listed as DNA, chemistry not given here; listed as Homo sapiens)”, in data set [2], the “Increases SLC16A11 transcript levels” value was “FALSE”.
Take “TGGCAGTCCCCGCGTCACGT (chemistry not given here)”: in data set [2], the “Increases SLC16A11 transcript levels” value is recorded as “TRUE”.
For “rs75075014 (guide 1 GGAAGTGGAGGAGAGTGTCC; guide 2 GGAGTCATGCCTGGAAGTGG; listed as DNA, chemistry not given here; listed as Homo sapiens)”, the “Increases SLC16A11 transcript levels” value in data set [2] is “FALSE”.
Same read-out and setting: next, “rs312457 (guide 1 TGATGAAACCTGGCCGGGCA; guide 2 GTGAGCCACCGTGCCCGGCC; listed as DNA, chemistry not given here; listed as Homo sapiens)”: “FALSE”.
Turning to “CTATTTCCACGCGTTGGCGG (chemistry not given here)”, the “Increases SLC16A11 transcript levels” value in data set [2] is recorded as “TRUE”.
